The numbers were not newly measured in patent US7994258B2, “Hyperbranched polymer having nitroxyl group” (Nissan Chemical Industries, Ltd., priority 2007, dated 2011), which cites them from elsewhere.

For the data set the following is noted: comparison value, measuring conditions not stated.

On to `O=C([O-])CN(CCN(CC(=O)[O-])CC(=O)O)CCN(CC(=O)[O-])CC(=O)O.[Gd+3]` [GdDTPA], for which the “relaxivity (r1) of comparator” value is 4.0 mM⁻¹ s⁻¹.
